# Literature values as cited in patent EP0268925B1, “Safened pesticidal resin compositions for controlling soil borne pests and process for the preparation thereof” (priority 1986, dated 1988).
# Experiments:
# [1] = test system: rats; conditions: technical material
# [2] = inhalation hazard
Structure (SMILES),acute oral LD50 value in rats [1],inhalation LD50 [2] [mg/kg body weight]
"CCOP(=S)(OCC)SCSCC [phorate, O,O-diethyl-S-(ethylthiomethyl)phosphorodithioate]",1.6-3.7 mg technical/kg,35
"CCOP(=S)(OCC)SCSC(C)(C)C [terbufos, O,O-diethyl S-[[(1,1-dimethylethyl)thio]methyl]phosphorodithioate]",1.6 mg technical/kg,35
